# Source: US7504420B2, “Compounds which inhibit beta-secretase activity and methods of use” (CoMentis, Inc., priority 2005, dated 2009)
# Key:
# memapsin 2 = memapsin 2 (Homo sapiens, UniProt P56817); test: Inhibition of memapsin 2 catalytic activity (Ki); type: biochemical; conditions: memapsin 2, pH 4, 37° C.; read-out: M2K
# Procedure, shortened: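 Run at 37 °C and pH 4: compound and enzyme pre-incubated 20 min before FS-2 fluorogenic substrate started hydrolysis,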
# cathepsin D = cathepsin D (Homo sapiens, UniProt P07339); test: Inhibition of cathepsin D catalytic activity (Ki); type: biochemical; conditions: pH 4.0, 37° C., read-out: CDK
# memapsin 1 = target: T1, memapsin 1 (Homo sapiens, UniProt Q9Y5Z0); test: Inhibition of memapsin 1 catalytic activity (Ki); type: biochemical; conditions: memapsin 1, pH 4.0, 37° C.; read-out: M1K
# T1 sequence (Q9Y5Z0 63-518): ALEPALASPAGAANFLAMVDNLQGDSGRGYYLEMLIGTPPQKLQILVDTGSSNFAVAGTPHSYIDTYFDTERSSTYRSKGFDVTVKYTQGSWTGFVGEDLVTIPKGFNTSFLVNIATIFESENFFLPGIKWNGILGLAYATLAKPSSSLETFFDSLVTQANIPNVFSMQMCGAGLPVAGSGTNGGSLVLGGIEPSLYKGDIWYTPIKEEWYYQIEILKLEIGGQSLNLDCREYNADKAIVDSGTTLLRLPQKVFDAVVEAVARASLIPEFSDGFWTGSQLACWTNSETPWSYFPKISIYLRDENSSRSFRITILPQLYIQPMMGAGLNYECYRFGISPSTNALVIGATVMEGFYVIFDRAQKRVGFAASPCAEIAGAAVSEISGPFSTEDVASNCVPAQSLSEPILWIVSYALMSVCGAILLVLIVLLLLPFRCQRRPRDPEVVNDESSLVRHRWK
# Method: A substrate peptide NH3-ELDLAVEFWHDR-CO2 (SEQ ID NO.:1) (used for inhibition assay of memapsin 2, memapsin 1, and cathepsin D) was dissolved at 2 mg/ml in DMSO and diluted 1:100 in 0.1 M sodium acetate, pH 4.0 just prior to assay. Inhibitor dissolved in DMSO was diluted into 0.1 M sodium acetate, pH 4.0 (1:100 dilution). A […] aliquot of the inhibitor solution in pH 4 buffer was combined with […] of 0.1 M sodium acetate containing 100-200 nM of memapsin 1, memapsin 2, or cathepsin D. Following a pre-incubation at 37° C., the proteolytic assay was initated by addition of […] of the substrate diluted into pH 4 buffer, and incubation continued at 37° C. Aliquots were removed at time intervals, and combined with an equal volume of MALDI-TOF matrix (α-hydroxycinnamic acid in acetone, 20 mg/ml) and immediately spotted in duplicate onto a stainless-steel MALDI sample plate. MALDI-TOF mass spectrometry was performed on a PE Biosystems Voyager DE instrument at the Molecular Biology Resource Center on campus. The instrument was operated at 25,000 accelerating volts in positive mode with a 150 ns delay. Ions with a mass-to-charge ratio (m/z) were detected in the range of 650-2000 atomic mass units. Data were analyzed by the Voyager Data Explorer module to obtain ion intensity data for mass species of substrates and corresponding products in a given mixture. Relative product formation was calculated as the ratio of signal intensity of the product to the sum of signal intensities of both product and the corresponding substrate. Relative product formed per unit time was obtained from non-linear regression analysis of the data representing the initial 15% formation of product using the model: 1−e^−kT, where k was the relative hydrolytic rate constant and T was time in seconds. Alternatively, relative hydrolytic rates were determined using a fluorogenic cleavage assay (Ermolieff, J. et al., Biochemistry, 39: 12450-12456 (2000)). Initial rates from either method were expressed relative to uninhibited controls and the inhibition constant Ki was determined by a non-linear fit to a tight-binding model of competitive inhibition (Bieth, J., Bayer-Symposium V: Proteinase Inhibitors, pp 463-469, Spinger-Varlag, Berlin (1994)). Results are shown in Table 1 above (M2K, CDK, and M1K columns represent, respectively, the K1 values obtained for memapsin 2, cathepsin D and memapsin 1).
# [1] = test system: Aβ production in Chinese hamster ovary cells that over-express human APP695 with the London and Swedish mutations; test: Cellular Aβ IC50 determination (Aβ40 sandwich ELISA); conditions: Cricetulus griseus, CHO, 24 h, read-out: Cell, Aβ40, CHO cells over-expressing human APP695 (London and Swedish mutations), 24 h
# Sequence of memapsin 2 (P56817 46-501): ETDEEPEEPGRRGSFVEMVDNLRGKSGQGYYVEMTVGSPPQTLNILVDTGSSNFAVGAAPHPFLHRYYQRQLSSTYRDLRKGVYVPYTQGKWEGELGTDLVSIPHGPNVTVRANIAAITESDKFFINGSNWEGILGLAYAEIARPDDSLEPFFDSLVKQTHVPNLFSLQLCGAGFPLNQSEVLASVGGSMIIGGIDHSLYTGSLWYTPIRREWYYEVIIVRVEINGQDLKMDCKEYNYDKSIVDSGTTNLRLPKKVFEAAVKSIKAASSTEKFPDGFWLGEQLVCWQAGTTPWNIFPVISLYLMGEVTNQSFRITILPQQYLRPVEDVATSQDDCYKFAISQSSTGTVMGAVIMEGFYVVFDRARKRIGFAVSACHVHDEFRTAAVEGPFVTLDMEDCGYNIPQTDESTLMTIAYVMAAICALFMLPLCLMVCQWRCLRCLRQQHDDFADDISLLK
# Sequence of cathepsin D (P07339 65-412, species assumed): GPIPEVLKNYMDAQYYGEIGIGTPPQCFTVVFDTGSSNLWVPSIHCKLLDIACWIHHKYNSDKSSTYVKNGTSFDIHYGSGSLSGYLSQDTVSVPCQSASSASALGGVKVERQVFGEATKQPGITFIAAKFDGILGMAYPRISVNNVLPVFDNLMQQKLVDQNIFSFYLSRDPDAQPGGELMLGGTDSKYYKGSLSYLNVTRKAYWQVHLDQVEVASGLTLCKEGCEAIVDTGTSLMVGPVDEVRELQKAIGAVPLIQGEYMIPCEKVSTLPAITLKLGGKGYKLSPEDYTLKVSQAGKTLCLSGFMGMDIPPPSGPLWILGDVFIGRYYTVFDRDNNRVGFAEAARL
Ki (memapsin 2) [nM],Ki (cathepsin D) [nM],Ki (memapsin 1) [nM],IC50 [1] [nM],SMILES
< 300,> 501,301 to 500,< 1000,CC(NC(=O)c1cc(C(=O)NC(Cc2ccccc2)C(O)CNCc2cccnc2)cc(N(C)S(C)(=O)=O)c1)c1ccccc1 (stereo not shown) [N1-(3-hydroxy-1-phenyl-4-(pyridin-3-ylmethylamino)butan-2-yl)-5-(N-methylmethylsulfonamido)-N3-(1-phenylethyl)isophthalamide]
< 300,< 300,> 501,< 1000,COc1cccc(CNCC(O)C(Cc2ccccc2)NC(=O)c2cc(C(=O)NN(C)c3ccccc3)cc(N(C)S(C)(=O)=O)c2)c1 (stereo not shown) [N-(3-hydroxy-4-(3-methoxybenzylamino)-1-phenylbutan-2-yl)-3-(2-methyl-2-phenylhydrazinecarbonyl)-5-(N-methylmethylsulfonamido)benzamide]
301 to 500,< 300,< 300,< 1000,CCN(c1cc(C(=O)NC(C)c2ccccc2)cc(C(=O)NC(Cc2ccccc2)C(O)CNCc2cccc(OC)c2)c1)S(C)(=O)=O (stereo not shown) [5-(N-ethylmethylsulfonamido)-N1-(3-hydroxy-4-(3-methoxybenzylamino)-1-phenylbutan-2-yl)-N3-(1-phenylethyl)isophthalamide]
< 300,> 501,> 501,< 1000,CC(NC(=O)c1cc(C(=O)NC(Cc2ccccc2)C(O)CNCc2ccccn2)cc(N(C)S(C)(=O)=O)c1)c1ccccc1 (stereo not shown) [N1-(3-hydroxy-1-phenyl-4-(pyridin-2-ylmethylamino)butan-2-yl)-5-(N-methylmethylsulfonamido)-N3-(1-phenylethyl)isophthalamide]
301 to 500,< 300,< 300,< 1000,COc1cccc(CNCC(O)C(Cc2ccccc2)NC(=O)c2cc(C(=O)NC(C)c3ccccc3)cc([N+](=O)[O-])c2)c1 (stereo not shown) [N1-(3-hydroxy-4-(3-methoxybenzylamino)-1-phenylbutan-2-yl)-5-nitro-N3-(1-phenylethyl)isophthalamide]
< 300,< 300,> 501,1000 to 5000,COc1cccc(CNCC(O)C(Cc2ccccc2)NC(=O)c2cc(C(=O)NCc3cccc(OC)c3)cc(N(C)S(C)(=O)=O)c2)c1 (stereo not shown) [N1-(3-hydroxy-4-(3-methoxybenzylamino)-1-phenylbutan-2-yl)-N3-(3-methoxybenzyl)-5-(N-methylmethylsulfonamido)isophthalamide]

# Further lines, the compound ahead of its results:
SMILES,Ki (memapsin 2) [nM],Ki (cathepsin D) [nM],Ki (memapsin 1) [nM],IC50 [1] [nM]
COc1cccc(CNCC(O)C(Cc2ccccc2)NC(=O)c2cccc(C(=O)N(C)Cc3nc(C)cs3)c2)c1 (stereo not shown) [N1-(3-hydroxy-4-(3-methoxybenzylamino)-1-phenylbutan-2-yl)-N3-methyl-N3-((4-methylthiazol-2-yl)methyl)isophthalamide],< 300,< 300,> 501,< 1000
CCC(NCC(O)C(Cc1ccccc1)NC(=O)c1cc(C(=O)NC(C)c2ccccc2)cc(N(C)S(C)(=O)=O)c1)c1ccccc1 (stereo not shown) [N1-(3-hydroxy-1-phenyl-4-(1-phenylpropylamino)butan-2-yl)-5-(N-methylmethylsulfonamido)-N3-(1-phenylethyl)isophthalamide],< 300,< 300,< 300,< 1000
Cc1csc(CN(C)C(=O)c2cccc(C(=O)NC(Cc3ccccc3)C(O)CNCc3cccc(C(F)(F)F)c3)c2)n1 (stereo not shown) [N1-(3-hydroxy-1-phenyl-4-(3-(trifluoromethyl)benzylamino)butan-2-yl)-N3-methyl-N3-((4-methylthiazol-2-yl)methyl)isophthalamide],< 300,< 300,> 501,< 1000
"COc1cccc(CNCC(O)C(Cc2ccccc2)NC(=O)c2cc(C(=O)NC(C)c3nc(C)oc3C)cc(N(C)S(C)(=O)=O)c2)c1 (stereo not shown) [N1-(1-(2,5-dimethyloxazol-4-yl)ethyl)-N3-(3-hydroxy-4-(3-methoxybenzylamino)-1-phenylbutan-2-yl)-5-(N-methylmethylsulfonamido)isophthalamide]",> 501,> 501,> 501,1000 to 5000
